This is an account of results in US7226923B2, “Phthalazinone derivatives” (Hoffman-La Roche Inc., priority 2004, dated 2007).

The structures appear in SMILES notation.

For one assay, the target named is T1, Aurora A (Homo sapiens, UniProt O14965).
T1 construct: C-terminally Histidine4 (His4)-tagged Aurora A full-length protein
T1 sequence (O14965 1-403): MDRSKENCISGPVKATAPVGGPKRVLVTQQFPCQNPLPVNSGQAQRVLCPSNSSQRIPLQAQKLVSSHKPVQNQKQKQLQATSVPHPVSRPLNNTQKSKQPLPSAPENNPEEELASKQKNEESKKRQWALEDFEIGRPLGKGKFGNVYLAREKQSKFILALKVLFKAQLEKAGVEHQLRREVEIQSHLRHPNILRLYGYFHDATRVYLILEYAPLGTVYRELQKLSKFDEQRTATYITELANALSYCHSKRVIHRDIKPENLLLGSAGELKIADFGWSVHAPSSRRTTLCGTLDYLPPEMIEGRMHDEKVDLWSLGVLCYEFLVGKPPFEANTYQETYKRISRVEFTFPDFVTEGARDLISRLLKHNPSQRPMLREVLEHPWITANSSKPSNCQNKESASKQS
Briefly: IC50 determination for inhibitors of Aurora A (96 MTP-ELISA). It counts as biochemical. Particulars: His4-tagged full-length Aurora A 250 ng/ml, PKB-GSK2 200 nM, ATP 4 μM, 90 min at room temperature, read-out: IC50 Aurora A kinase inhibition. Here is the method: IC50 Determination for Inhibitors of Aurora A
• Aurora A is a serine threonine kinase involved in spindle assembly and chromosome segregation.
The assay is a typically ELISA-type assay where biotinylated substrate (PKB-GSK2) is phosphorylated. Phosphorylation is detected by peroxidase (POD) labelled polyclonal antibody (PAK<M-Ig>S-IgG-POD) and phosphopeptide monoclonal antibody (Mab) (MAK<P-GSK>M-27E5-IgG). The assay is validated for IC50-determination.
Method • This assay is performed in 96-well format for IC50 determination with 5 samples (each with 8 concentrations by twofold testing), 100 μl incubation volume and the following plate layout: […]
For orientation: ELISA stands for enzyme-linked immunosorbent assay.
The IC50 is the concentration that inhibits the measured activity by half. For `CC(=O)N1CCN(C(=O)c2ccc3c(Nc4cc(C)[nH]n4)nn(C(C)C)c(=O)c3c2)CC1` [Example M-7, 7-(4-Acetyl-piperazine-1-carbonyl)-2-isopropyl-4-(5-methyl-1H-pyrazol-3-ylamino)-2H-phthalazin-1-one], the IC50 was 0.001 to 0.1 µM. Turning to `CC(C)n1nc(Nc2cc(C3CC3)n[nH]2)c2ccc(N(C)C)cc2c1=O` [Example F-9, 4-(5-Cyclopropyl-2H-pyrazol-3-ylamino)-7-dimethylamino-2-isopropyl-2H-phthalazin-1-one], the IC50 is 0.001 to 0.1 µM. For `Cc1cc(Nc2nn(C(C)C)c(=O)c3cc(F)ccc23)n[nH]1` [Example E-2, 7-Fluoro-2-isopropyl-4-(5-methyl-1H-pyrazol-3-ylamino)-2H-phthalazin-1-one], the half-inhibitory concentration (IC50) lay within 0.001 to 0.1 µM.

Regarding `COc1ccc2c(=O)n(C(C)C)nc(Nc3cc(C)[nH]n3)c2c1` [Example G-9, 2-Isopropyl-6-methoxy-4-(5-methyl-1H-pyrazol-3-ylamino)-2H-phthalazin-1-one], the IC50 lay within 0.001 to 0.1 µM.

A further assay concerns HCT 116 cells. Briefly: CellTiter-Glo assay in HCT 116 cells. It counts as cell-based, human. The conditions noted are these: 5 days incubation, 30 μM to 0.0015 μM. The source says: CellTiter-Glo™ Assay in HCT 116 Cells
The CellTiter-Glo™ Luminescent Cell Viability Assay (Promega) is a homogeneous method of determining the number of viable cells in culture based on quantitation of the ATP present, which signals the presence of metabolically active cells.
HCT 116 cells (human colon carcinoma, ATCC-No. CCl-247) were cultivated in RPMI 1640 medium with GlutaMAX™ I (Invitrogen, Cat-No. 61870-010), 2.5% Fetal Calf Serum (FCS, Sigma Cat-No. F4135 (FBS)); 100 Units/ml penicillin/100 μg/ml streptomycin (=Pen/Strep from Invitrogen Cat. No. 15140). For the assay the cells were seeded in 384 well plates, 1000 cells per well, in the same medium. The next day the test compounds were added in various concentrations ranging from 30 μM to 0.0015 μM (10 concentrations, 1:3 diluted). After 5 days the CellTiter-Glo™ assay was done according to the instructions of the manufacturer (CellTiter-Glo™ Luminescent Cell Viability Assay, from Promega). In brief: the cell-plate was equilibrated to room temperature for approximately 30 minutes and than the CellTiter-Glo™ reagent was added. The contents were carefully mixed for 15 minutes to induce cell lysis. After 45 minutes the luminescent signal was measured in Victor 2, (scanning multiwell spectrophotometer, Wallac).
1st. Day: • Medium: RPMI 1640 with GlutaMAX™ I (Invitrogen, Cat-Nr. 61870), 5% FCS (Sigma Cat.-No. F4135), Pen/Strep (Invitrogen, Cat No. 15140). • HCT116 (ATCC-No. CCl-247): 1000 cells in 60 μl per well of 384 well plate (Greiner 781098, μClear-plate white) • After seeding incubate plates 24 h at 37° C., 5% CO2
2nd. Day: Induction (Treatment with Compounds, 10 Concentrations):
In order to achieve a final concentration of 30 μM as highest concentration 3.5 μl of 10 mM compound stock solution were added directly to 163 μl media. Then step e) of the dilution procedure described below, was followed.
(Cellular ATP, detected with luciferase, serves as a proxy for viable cell number.)
Compound `Cc1cc(Nc2nn(-c3ccccc3)c(=O)c3ccccc23)[nH]n1` [Example A-1, 4-(5-Methyl-2H-pyrazole-3-ylamino)-phenyl-2H-phthalazin-1-one] showed an IC50 of 1.66 µM.

The same assay, now with this note: Homo sapiens, HCT-116, 120 h, 5 days incubation, 30 μM to 0.0015 μM.
The compound `CC(=O)N1CCN(C(=O)c2ccc3c(Nc4cc(C)[nH]n4)nn(C(C)C)c(=O)c3c2)CC1` [Example M-7, 7-(4-Acetyl-piperazine-1-carbonyl)-2-isopropyl-4-(5-methyl-1H-pyrazol-3-ylamino)-2H-phthalazin-1-one] registered a concentration for half-maximal inhibition (IC50) of 10 to 100 µM. On the same count and under the same terms, then `CC(C)n1nc(Nc2cc(C3CC3)n[nH]2)c2ccc(N(C)C)cc2c1=O` [Example F-9, 4-(5-Cyclopropyl-2H-pyrazol-3-ylamino)-7-dimethylamino-2-isopropyl-2H-phthalazin-1-one], with 0.1 to 10 µM; and `Cc1cc(Nc2nn(C(C)C)c(=O)c3cc(F)ccc23)n[nH]1` [Example E-2, 7-Fluoro-2-isopropyl-4-(5-methyl-1H-pyrazol-3-ylamino)-2H-phthalazin-1-one], with 0.1 to 10 µM; and `Cc1cc(Nc2nn(-c3ccc(C(C)(C)C)cc3)c(=O)c3cc(N)ccc23)[nH]n1` [Example ZB-2, 7-Amino-2-(4-tert-butyl-phenyl)-4-(5-methyl-2H-pyrazol-3-ylamino)-2H-phthalazin-1-one], with 0.1 to 10 µM. As to `COc1ccc2c(=O)n(C(C)C)nc(Nc3cc(C)[nH]n3)c2c1` [Example G-9, 2-Isopropyl-6-methoxy-4-(5-methyl-1H-pyrazol-3-ylamino)-2H-phthalazin-1-one], the IC50 was in the range of 0.1 to 10 µM.

With `Cc1cc(Nc2nn(C(C)C)c(=O)c3cc(SCCN4CCOCC4)ccc23)n[nH]1` [Example H-3, 2-Isopropyl-4-(5-methyl-1H-pyrazol-3-ylamino)-7-(2-morpholin-4-yl-ethylsulfanyl)-2H-phthalazin-1-one], the 50% inhibitory concentration (IC50) is 0.1 to 10 µM. On to `Cc1cc(Nc2nn(-c3ccc(N)cc3)c(=O)c3ccccc23)n[nH]1` [Example C-2, 2-(4-Amino-phenyl)-4-(5-methyl-1H-pyrazol-3-ylamino)-2H-phthalazin-1-one], for which the IC50 is 0.1 to 10 µM. Regarding `Cc1cc(Nc2nn(-c3ccc(N4CCCC4)cc3)c(=O)c3ccccc23)n[nH]1` [Example U-3, 4-(5-Methyl-1H-pyrazol-3-ylamino)-2-(4-pyrrolidin-1-yl-phenyl)-2H-phthalazin-1-one], the IC50 was in the range of 0.1 to 10 µM.

For the compound `Cc1cc(Nc2nn(Cc3cc(F)ccc3F)c(=O)c3ccccc23)n[nH]1` [Example A-13, 2-(2,5-Difluoro-benzyl)-4-(5-methyl-1H-pyrazol-3-ylamino)-2H-phthalazin-1-one], the concentration for half-maximal inhibition (IC50) was in the range of 0.1 to 10 µM.

`CCN(C(C)=O)c1ccc(-n2nc(Nc3cc(C)[nH]n3)c3ccccc3c2=O)cc1` [Example Y-1, N-Ethyl-N-{4-[4-(5-methyl-1H-pyrazol-3-ylamino)-1-oxo-1H-phthalazin-2-yl]-phenyl}-acetamide] came in with an IC50 of 0.1 to 10 µM. `Cc1cc(Nc2nn(-c3ccc(C(C)(C)C)cc3)c(=O)c3ccc(Br)cc23)[nH]n1` [Example ZB-6, 6-Bromo-2-(4-tert-butyl-phenyl)-4-(5-methyl-2H-pyrazol-3-ylamino)-2H-phthalazin-1-one] yielded an IC50 of 0.1 to 10 µM. `Cc1cc(Nc2nn(CC3CC3)c(=O)c3ccccc23)n[nH]1` [Example E-11, 2-Cyclopropylmethyl-4-(5-methyl-1H-pyrazol-3-ylamino)-2H-phthalazin-1-one] registered an IC50 of 0.1 to 10 µM. Turning to `Cc1cc(Nc2nn(C(C)C)c(=O)c3cc(C(=O)NC(C)C)ccc23)n[nH]1` [Example M-5, 3-Isopropyl-1-(5-methyl-1H-pyrazol-3-ylamino)-4-oxo-3,4-dihydro-phthalazine-6-carboxylic acid isopropylamide], the IC50 was in the range of 0.1 to 10 µM.

Consider `Cc1cc(Nc2nn(C(C)C)c(=O)c3cc(N(C)S(C)(=O)=O)ccc23)n[nH]1` [Example I-10, N-[3-Isopropyl-1-(5-methyl-1H-pyrazol-3-ylamino)-4-oxo-3,4-dihydro-phthalazin-6-yl]-N-methyl-methanesulfonamide], for which the IC50 lay within 0.1 to 10 µM. Consider `CCOC(=O)N(C)c1ccc(-n2nc(Nc3cc(C)[nH]n3)c3ccccc3c2=O)cc1` [Example Y-3, Methyl-{4-[4-(5-methyl-1H-pyrazol-3-ylamino)-1-oxo-1H-phthalazin-2-yl]-phenyl}-carbamic acid ethyl ester], for which the half-maximal inhibitory concentration (IC50) was 0.1 to 10 µM. `CCOC(=O)N(C)c1ccc2c(Nc3cc(C)[nH]n3)nn(C(C)C)c(=O)c2c1` [Example I-7, [3-Isopropyl-1-(5-methyl-1H-pyrazol-3-ylamino)-4-oxo-3,4-dihydro-phthalazin-6-yl]-methyl-carbamic acid ethyl ester] displayed an IC50 of 0.1 to 10 µM. `Cc1cc(Nc2nn(C(C)C)c(=O)c3ccc(F)cc23)n[nH]1` [Example E-3, 6-Fluoro-2-isopropyl-4-(5-methyl-1H-pyrazol-3-ylamino)-2H-phthalazin-1-one] returned an IC50 of 0.1 to 10 µM. Take `COCC(=O)Nc1ccc(-n2nc(Nc3cc(C)[nH]n3)c3ccccc3c2=O)cc1` [Example T-2, 2-Methoxy-N-{4-[4-(5-methyl-1H-pyrazol-3-ylamino)-1-oxo-1H-phthalazin-2-yl]-phenyl}-acetamide]: the IC50 was 0.1 to 10 µM. The same measure, in the same setting: for `Cc1cc(Nc2nn(Cc3ccc(F)c(F)c3)c(=O)c3ccccc23)n[nH]1` [Example A-15, 2-(3,4-Difluoro-benzyl)-4-(5-methyl-1H-pyrazol-3-ylamino)-2H-phthalazin-1-one] the value was 0.1 to 10 µM; for `Cc1cc(Nc2nn(CC(C)C)c(=O)c3ccccc23)n[nH]1` [Example A-4, 2-Isobutyl-4-(5-methyl-1H-pyrazol-3-ylamino)-2H-phthalazin-1-one], 0.1 to 10 µM. `Cc1cc(Nc2nn(C(C)C)c(=O)c3cc(NS(C)(=O)=O)ccc23)n[nH]1` [Example J-2, N-[3-Isopropyl-1-(5-methyl-1H-pyrazol-3-ylamino)-4-oxo-3,4-dihydro-phthalazin-6-yl]-methanesulfonamide] registered an IC50 of 0.1 to 10 µM. On the same count and under the same terms, for `Cc1cc(Nc2nn(-c3ccc(-c4ccccc4)cc3)c(=O)c3ccccc23)n[nH]1` [Example Q-1, 2-Biphenyl-4-yl-4-(5-methyl-1H-pyrazol-3-ylamino)-2H-phthalazin-1-one] the value was 10 to 100 µM. As to `Cc1cc(Nc2nn(-c3ccc(Cl)cc3)c(=O)c3ccccc23)n[nH]1` [Example B-1, 2-(4-Chloro-phenyl)-4-(5-methyl-1H-pyrazol-3-ylamino)-2H-phthalazin-1-one], the IC50 lay in the range of 0.1 to 10 µM. `Cc1cc(Nc2nn(-c3ccc([S+]([O-])c4ccccc4)cc3)c(=O)c3ccccc23)n[nH]1` (centres unmarked) [Example ZA-2, 2-(4-Benzenesulfinyl-phenyl)-4-(5-methyl-1H-pyrazol-3-ylamino)-2H-phthalazin-1-one] gave an IC50 of 0.1 to 10 µM. As for `C=CCn1nc(Nc2cc(C)[nH]n2)c2ccccc2c1=O` [Example E-10, 2-Allyl-4-(5-methyl-1H-pyrazol-3-ylamino)-2H-phthalazin-1-one], the IC50 is 0.1 to 10 µM. Compound `CSc1ccc(Cn2nc(Nc3cc(C)[nH]n3)c3ccccc3c2=O)cc1` [Example E-12, 4-(5-Methyl-1H-pyrazol-3-ylamino)-2-(4-methylsulfanyl-benzyl)-2H-phthalazin-1-one] registered a half-maximal inhibitory concentration (IC50) of 0.1 to 10 µM. Compound `Cc1cc(Nc2nn(C(C)C)c(=O)c3ccc(N4CCOCC4)cc23)n[nH]1` [Example F-2, 2-Isopropyl-4-(5-methyl-1H-pyrazol-3-ylamino)-6-morpholino-2H-phthalazin-1-one] showed a 50% inhibitory concentration (IC50) of 0.1 to 10 µM.
